Key:
[1] = system: neuronal uptake of dopamine; details: relative to serotonin-norepinephrine uptake; cited from earlier work
[2] = in vivo; cited from earlier work
[3] = Solubility in solvents (product characteristics); type: physicochemical; details: in methanol
[4] = ethanol, chloroform, dichloromethane, acetone, ethyl acetate, benzene, toluene and isopropyl alcohol

**Q.** Which results are given for `COc1ccc(C(CN(C)C)C2(O)CCCCC2)cc1` (racemic) [formula (IX), (±)-1-[2-dimethylamino-1-(4-methoxy-phenyl)-ethyl]-cyclohexanol]?
**A.** inhibition of neuronal uptake of dopamine [1]: to a lesser extent; effectiveness compared with standard antidepressants such as imipramine [2]: as effective as

**Q.** Which Solubility [3, 4] does the source give for `COc1ccc(C2(C#N)OC23CCCCC3)cc1` (stereo not shown) [formula (I), 2-(4-methoxy-phenyl)-1-oxa-spiro[2.5]octane-2-carbonitrile] here?
**A.** Its Solubility is “Soluble in methanol, ethanol, chloroform, dichloromethane,”.

**Q.** For `COc1ccc(C(=O)C2CCCCC2)cc1` [formula (III), cyclohexyl-(4-methoxy-phenyl)-methanone], which Solubility [3, 4] is on record?
**A.** The Solubility was “Soluble in Methanol, ethanol, chloroform, dichloromethane,”.

**Q.** For `COc1ccc(C(CN)C2(O)CCCCC2)cc1` (stereo not shown) [formula (X), 1-[2-amino-1-(4-methoxy-phenyl)-ethyl]-cyclohexanol], which Solubility ([3]; chloroform and water) is on record?
**A.** The Solubility was “Soluble in methanol, chloroform and water”.

**Q.** With `COc1ccc(C(O)C2CCCCC2)cc1` (stereo not shown) [formula (V), cyclohexyl-(4-methoxy-phenyl)-methanol] as the compound, how does the Solubility ([3]; ethanol, chloroform, dichloromethane, acetone, ethyl acetate etc.) read?
**A.** The Solubility was “Soluble in methanol, ethanol, chloroform,”.

**Q.** With `COc1ccc(C(=O)C2(Br)CCCCC2)cc1` [formula (II), (1-bromo-cyclohexyl)-(4-methoxy-phenyl)-methanone] as the compound, how does the Solubility [3, 4] read?
**A.** Its Solubility is “Soluble in methanol, ethanol, chloroform, dichloromethane,”.
